Experimental data taken from article PMC6973051, “Proline‐Rich Peptides with Improved Antimicrobial Activity against E. coli, K. pneumoniae, and A. baumannii” (Chemmedchem, 2019).
Ends that are not written are not given here.

How the values were obtained:
P. aeruginosa ATCC 27853 [1] = format: cell-based, Pseudomonas aeruginosa; conditions: ATCC 27853, 18 h
Source text: (§1) The following bacterial strains were used: Escherichia coli BW25113, E. coli BW25113ΔsbmA (JW0368‐1, KEIO collection21); Acinetobacter baumannii ATCC 19606, Klebsiella pneumoniae ATCC 700603, Pseudomonas aeruginosa ATCC 27853 and Staphylococcus aureus ATCC 25923. The pathogenic E. coli EURL‐VTEC A07, E. coli EURL‐VTEC C07, E. coli SSI‐NN14, E. coli EA22, E. coli SSI‐OO15 and E. coli C679‐12 strains were generously provided by the European Union Reference Laboratory for E. coli, Department of Food Safety, Nutrition and Veterinary Public Health, Istituto Superiore di Sanità, Rome, Italy. All the strains were grown overnight in Müller‐Hinton broth (MHB, Difco) at 37 °C, with shaking (140 rpm). The day after, the overnight bacterial cultures were diluted approx. 1 : 40 in fresh MHB and incubated at 37 °C with shaking (140 rpm) until an OD600nm of ≈0.3 was reached. E. coli BW25113ΔsbmA was grown in the presence of 50 μg mL^−1 kanamycin.
(§2) Peptides were diluted in 100 μL of MHB to the concentration of 128 μM, dispensed in the first wells of a 96‐wells microtiter plate (round‐bottom) and serially two‐fold diluted with MHB into successive wells in a final volume of 50 μl. Subsequently, 50 μL of a bacterial suspension (5×10^5 CFU mL^−1) were added to each well, halving the final concentration of bacteria and peptides. Bacteria were added to MHB only as bacterial growth‐control, whereas 100 μl of MHB were used to check the medium sterility. The plate was incubated overnight at 37 °C (≈18 hours) and sealed with parafilm to minimise evaporation. The MIC was calculated as the first clear well without bacterial growth. If barely detectable growth was present, the OD600nm of the plate was measured by a multiplate reader Tecan (software Sunrise). The MIC was then calculated as the well whose OD620 was≤1 % of that of the untreated growth control.

P. aeruginosa ATCC 27853 [2] = format: cell-based, Pseudomonas aeruginosa
Source text: (§3) Table 3 MIC and MBC of the native Bac5(1–17) (wt) and selected Bac5‐derivatives on pathogenic and reference bacterial strains. | column: MBC (μM) / wt; MBC (μM) / 258; MBC (μM) / 272; MBC (μM) / 278; MBC (μM) / 281; MBC (μM) / 291

S. aureus ATCC 25923 [3] = format: cell-based, Staphylococcus aureus
Source text: as §3

[4] = tested on: E. coli EURL‐VTEC A07 EPEC:O111; format: cell-based, Escherichia coli; conditions: EURL‐VTEC A07 EPEC:O111, 18 h
Source text: as §1, §2

E. coli SSI‐OO15 EIEC = format: cell-based, Escherichia coli; conditions: 18 h
Source text: as §1, §2

[5] = tested on: E. coli C679‐12 EAEC:0104; format: cell-based, Escherichia coli; conditions: C679‐12 EAEC:0104, 18 h
Source text: as §1, §2

[6] = tested on: E. coli EURL‐VTEC C07 STEC:O157; format: cell-based, Escherichia coli; conditions: EURL‐VTEC C07 STEC:O157, 18 h
Source text: as §1, §2

E. coli EA22 ETEC = format: cell-based, Escherichia coli; conditions: 18 h
Source text: as §1, §2

E. coli BW25113 [7] = format: cell-based, Escherichia coli; conditions: BW25113, 18 h
Source text: as §1, §2

A. baumannii ATCC 19606 [8] = format: cell-based, Acinetobacter baumannii
Source text: as §3

A. baumannii ATCC 19606 [9] = format: cell-based, Acinetobacter baumannii; conditions: ATCC 19606, 18 h
Source text: as §1
Peptides were diluted in 100 μL of MHB to the concentration of 128 μM, dispensed in the first wells of a 96‐wells microtiter plate (round‐bottom) and serially two‐fold diluted with MHB into successive wells in a final volume of 50 μl. […] The MIC was calculated as the first clear well without bacterial growth. If barely detectable growth was present, the OD600nm of the plate was measured by a multiplate reader Tecan (software Sunrise). […]

S. aureus ATCC 25923 [10] = format: cell-based, Staphylococcus aureus; conditions: ATCC 25923, 18 h
Source text: as §1, §2

E. coli BW25113 [11] = format: cell-based, Escherichia coli
Source text: as §3

[12] = tested on: K. pneumoniae ATCC 700603; format: cell-based, Klebsiella pneumoniae
Source text: as §3

E. coli BW25113 [13] = test: Propidium iodide uptake by flow cytometry (membrane permeabilization); format: cell-based, Escherichia coli; conditions: 1 μM colistin (positive control), 30 min
Method: The bacterial cell integrity was controlled evaluating the propidium iodide (PI) uptake by flow‐cytometry on a Cytomics FC 500 (Beckman‐Coulter). 10^4 bacterial cells were acquired for each measurement. Mid‐log phase E. coli BW25113 cultures diluted to 10^6 CFU mL^−1 in MHB were exposed for 30 min to 4 μM and 16 μM peptides at 37 °C in the presence of 10 μg mL^−1 PI. Membrane permeabilization was calculated as the % PI‐positive cells, and membrane damage measuring the mean fluorescence intensity (MFI). An untreated control received sterile water instead of peptides. By contrast, bacteria were treated with 1 μM colistin as a permeabilizing control. Data are reported as the average ± standard deviation.

RFRPPIRRPPIRPPFYP [wt, reference compound]
MIC (P. aeruginosa ATCC 27853 [1]): >64 µM | MBC (P. aeruginosa ATCC 27853 [2]): >64 µM | MBC (S. aureus ATCC 25923 [3]): >64 µM | MIC [4]: 16 µM | MIC (E. coli SSI‐OO15 EIEC): 16 µM | MIC [5]: 16 µM | MIC [6]: >64 µM | MIC (E. coli EA22 ETEC): 2 µM | MIC (E. coli BW25113 [7]): 16 µM | MBC (A. baumannii ATCC 19606 [8]): >64 µM | MIC (A. baumannii ATCC 19606 [9]): >64 µM | MIC (S. aureus ATCC 25923 [10]): >64 µM | MBC (E. coli BW25113 [11]): >64 µM | MBC [12]: >64 µM

RFRPPIRRPPIRPPFYR [compound 258]
MIC (P. aeruginosa ATCC 27853 [1]): >64 µM | MBC (P. aeruginosa ATCC 27853 [2]): >64 µM | MBC (S. aureus ATCC 25923 [3]): >64 µM | MIC [4]: 8 µM | MIC (E. coli SSI‐OO15 EIEC): 4 µM | MIC [5]: 8 µM | MIC [6]: >64 µM | MIC (E. coli EA22 ETEC): 2 µM | MIC (E. coli BW25113 [7]): 8 µM | MBC (A. baumannii ATCC 19606 [8]): 64 µM | MIC (A. baumannii ATCC 19606 [9]): 64 µM | MIC (S. aureus ATCC 25923 [10]): >64 µM | MBC (E. coli BW25113 [11]): 64 µM | MBC [12]: >64 µM

RFRPPWRRPPIRPPFYPG-NH2 (C-terminus assumed) [I6W]
MIC (E. coli BW25113 [7]): 8 µM

RFRPRIRRPPIRPPFYPG-NH2 (C-terminus assumed) [P5R]
MIC (E. coli BW25113 [7]): 16 µM

RFRPSIRRPPIRPPFYPG-NH2 (C-terminus assumed) [P5S]
MIC (E. coli BW25113 [7]): 64 µM

RFRPWIRRPPIRPPFYPG-NH2 (C-terminus assumed) [P5W]
MIC (E. coli BW25113 [7]): 16 µM

RFRRPIRRPPIRPPFYPG-NH2 (C-terminus assumed) [P4R]
MIC (E. coli BW25113 [7]): 4 µM

RFRSPIRRPPIRPPFYPG-NH2 (C-terminus assumed) [P4S]
MIC (E. coli BW25113 [7]): 16 µM

RFRWPIRRPPIRPPFYR [compound 272]
MBC (P. aeruginosa ATCC 27853 [2]): 64 µM | MBC (S. aureus ATCC 25923 [3]): >64 µM | MIC [4]: 2 µM | MIC (E. coli SSI‐OO15 EIEC): 1 µM | MIC [5]: 2 µM | MIC [6]: 8 µM | MIC (E. coli EA22 ETEC): 1 µM | MIC (E. coli BW25113 [7]): 4 µM | MBC (A. baumannii ATCC 19606 [8]): 16 µM | MIC (S. aureus ATCC 25923 [10]): >64 µM | MBC (E. coli BW25113 [11]): 8 µM | MBC [12]: >64 µM

RFRWPIRRPPIRPPFYRG-NH2 [272 (SPOT form)]
MIC (E. coli BW25113 [7]): 4 µM

RFSPPIRRPPIRPPFYPG-NH2 [R3S]
MIC (E. coli BW25113 [7]): >64 µM

RFWPPIRRPPIRPPFYPG-NH2 [R3W]
MIC (E. coli BW25113 [7]): 32 µM

RGRPPIRRPPIRPPFYPG-NH2 (C-terminus assumed) [F2G]
MIC (E. coli BW25113 [7]): 16 µM

RPRPPIRRPPIRPPFYPG-NH2 (C-terminus assumed) [F2P]
MIC (E. coli BW25113 [7]): 64 µM

RRRPPIRRPPIRPPFYPG-NH2 (C-terminus assumed) [F2R]
MIC (E. coli BW25113 [7]): 16 µM

RSRPPIRRPPIRPPFYPG-NH2 (C-terminus assumed) [F2S]
MIC (E. coli BW25113 [7]): 64 µM

RWRRPIRRRPIRPPFWR [compound 291]
MBC (P. aeruginosa ATCC 27853 [2]): >64 µM | MBC (S. aureus ATCC 25923 [3]): 64 µM | MIC [4]: 2 µM | MIC (E. coli SSI‐OO15 EIEC): 1 µM | MIC [5]: 1 µM | MIC [6]: 2 µM | MIC (E. coli EA22 ETEC): 1 µM | MIC (E. coli BW25113 [7]): 2 µM | MBC (A. baumannii ATCC 19606 [8]): 16 µM | MBC (E. coli BW25113 [11]): 8 µM | MBC [12]: >64 µM

RWRRPIRRRPIRPPFWRG-NH2 [291 (SPOT form)]
MIC (E. coli BW25113 [7]): 4 µM

RWRRPIRRRPIRPPFYW [compound 281]
MBC (P. aeruginosa ATCC 27853 [2]): 48 µM | MBC (S. aureus ATCC 25923 [3]): 32 µM | MIC [4]: 2 µM | MIC (E. coli SSI‐OO15 EIEC): 1 µM | MIC [5]: 2 µM | MIC [6]: 2 µM | MIC (E. coli EA22 ETEC): 2 µM | MIC (E. coli BW25113 [7]): 2 µM | MBC (A. baumannii ATCC 19606 [8]): 8 µM | MBC (E. coli BW25113 [11]): 2 µM | MBC [12]: >64 µM

RWRRPIRRRPIRPPFYWG-NH2 [281 (SPOT form)]
MIC (E. coli BW25113 [7]): 4 µM

RWRWPIRRPPIRPPFYR [compound 278]
MIC (P. aeruginosa ATCC 27853 [1]): 16 µM | MBC (P. aeruginosa ATCC 27853 [2]): 64 µM | MBC (S. aureus ATCC 25923 [3]): >64 µM | MIC [4]: 1 µM | MIC (E. coli SSI‐OO15 EIEC): 1 µM | MIC [5]: 2 µM | MIC [6]: 8 µM | MIC (E. coli EA22 ETEC): 1 µM | MIC (E. coli BW25113 [7]): 2 µM | MBC (A. baumannii ATCC 19606 [8]): 8 µM | MIC (S. aureus ATCC 25923 [10]): >64 µM | MBC (E. coli BW25113 [11]): 4 µM | MBC [12]: 48 µM

RWRWPIRRPPIRPPFYRG-NH2 [278 (SPOT form)]
MIC (E. coli BW25113 [7]): 4 µM

SFRPPIRRPPIRPPFYPG-NH2 [R1S]
MIC (E. coli BW25113 [7]): >64 µM

WFRPPIRRPPIRPPFYPG-NH2 [R1W]
MIC (E. coli BW25113 [7]): 32 µM

colistin
permeabilized bacterial cells (PI‐positive) (E. coli BW25113 [13]): ~100%
